Reference: ChEMBL document CHEMBL4800727 (2021)

Tests used:
Settings in all cases: Compound concentration 10.0 uM
[1] = biological target: 5-hydroxytryptamine receptor 1D (Homo sapiens) (UniProt P28221)
[2] = biological target: 5-hydroxytryptamine receptor 2A (Homo sapiens) (UniProt P28223)
[3] = biological target: 5-hydroxytryptamine receptor 5A (Homo sapiens) (UniProt P47898)
[4] = biological target: 5-hydroxytryptamine receptor 7 (Homo sapiens, UniProt P34969)
[5] = biological target: D(1A) dopamine receptor (Homo sapiens) (UniProt P21728)
D(1A) dopamine receptor (Homo sapiens), sequence (P21728 whole entry): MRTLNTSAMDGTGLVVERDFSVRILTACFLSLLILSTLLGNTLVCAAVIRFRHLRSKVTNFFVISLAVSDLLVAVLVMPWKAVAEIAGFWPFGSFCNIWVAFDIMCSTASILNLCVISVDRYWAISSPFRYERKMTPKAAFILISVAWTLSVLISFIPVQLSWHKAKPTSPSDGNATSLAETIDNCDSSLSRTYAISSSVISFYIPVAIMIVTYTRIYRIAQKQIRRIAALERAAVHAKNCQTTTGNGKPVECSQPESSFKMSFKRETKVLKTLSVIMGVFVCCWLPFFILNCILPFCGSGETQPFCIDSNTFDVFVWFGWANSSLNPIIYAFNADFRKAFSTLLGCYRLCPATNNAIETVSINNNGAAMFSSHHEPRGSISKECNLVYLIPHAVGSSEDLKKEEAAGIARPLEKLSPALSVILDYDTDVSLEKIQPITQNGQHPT

[6] = biological target: Sodium-dependent serotonin transporter (Homo sapiens) (UniProt P31645)
Sodium-dependent serotonin transporter (Homo sapiens), sequence (P31645 whole entry, looked up): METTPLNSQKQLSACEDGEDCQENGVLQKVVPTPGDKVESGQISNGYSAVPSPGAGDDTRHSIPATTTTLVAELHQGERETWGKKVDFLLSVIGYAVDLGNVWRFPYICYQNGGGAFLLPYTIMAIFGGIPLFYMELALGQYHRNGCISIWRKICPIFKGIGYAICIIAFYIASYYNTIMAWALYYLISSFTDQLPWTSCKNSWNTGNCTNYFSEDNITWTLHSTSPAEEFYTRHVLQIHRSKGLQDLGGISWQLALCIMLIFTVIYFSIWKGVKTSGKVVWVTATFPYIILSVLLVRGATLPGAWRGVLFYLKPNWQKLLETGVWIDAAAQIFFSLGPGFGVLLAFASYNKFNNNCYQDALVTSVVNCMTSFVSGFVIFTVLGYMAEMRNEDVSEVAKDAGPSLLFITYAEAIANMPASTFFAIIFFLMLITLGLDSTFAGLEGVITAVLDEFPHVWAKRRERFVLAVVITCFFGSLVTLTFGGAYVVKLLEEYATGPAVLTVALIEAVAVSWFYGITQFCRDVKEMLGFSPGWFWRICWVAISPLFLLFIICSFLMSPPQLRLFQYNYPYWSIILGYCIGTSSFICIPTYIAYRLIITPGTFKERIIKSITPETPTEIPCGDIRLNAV

[7] = biological target: Sodium-dependent dopamine transporter (Homo sapiens, UniProt Q01959)
Sodium-dependent dopamine transporter, sequence (Q01959 whole entry): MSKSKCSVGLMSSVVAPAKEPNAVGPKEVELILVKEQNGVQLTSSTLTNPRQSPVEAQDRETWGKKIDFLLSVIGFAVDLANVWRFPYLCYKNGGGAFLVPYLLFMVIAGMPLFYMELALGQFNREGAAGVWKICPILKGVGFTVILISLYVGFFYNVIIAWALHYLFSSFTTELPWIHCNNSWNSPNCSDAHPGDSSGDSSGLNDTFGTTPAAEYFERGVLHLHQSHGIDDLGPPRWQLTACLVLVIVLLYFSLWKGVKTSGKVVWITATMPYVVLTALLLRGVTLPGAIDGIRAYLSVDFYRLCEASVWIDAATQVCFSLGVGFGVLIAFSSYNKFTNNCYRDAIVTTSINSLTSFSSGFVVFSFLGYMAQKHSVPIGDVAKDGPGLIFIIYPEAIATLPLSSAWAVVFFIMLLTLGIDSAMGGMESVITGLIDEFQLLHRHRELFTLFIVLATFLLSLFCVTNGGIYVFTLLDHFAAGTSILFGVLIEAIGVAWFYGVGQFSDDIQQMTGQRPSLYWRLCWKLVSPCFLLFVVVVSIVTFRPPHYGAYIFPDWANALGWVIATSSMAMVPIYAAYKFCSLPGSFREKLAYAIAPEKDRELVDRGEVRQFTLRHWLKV

[8] = biological target: Mu-type opioid receptor (Homo sapiens) (UniProt P35372)
Mu-type opioid receptor (Homo sapiens), sequence (P35372 whole entry): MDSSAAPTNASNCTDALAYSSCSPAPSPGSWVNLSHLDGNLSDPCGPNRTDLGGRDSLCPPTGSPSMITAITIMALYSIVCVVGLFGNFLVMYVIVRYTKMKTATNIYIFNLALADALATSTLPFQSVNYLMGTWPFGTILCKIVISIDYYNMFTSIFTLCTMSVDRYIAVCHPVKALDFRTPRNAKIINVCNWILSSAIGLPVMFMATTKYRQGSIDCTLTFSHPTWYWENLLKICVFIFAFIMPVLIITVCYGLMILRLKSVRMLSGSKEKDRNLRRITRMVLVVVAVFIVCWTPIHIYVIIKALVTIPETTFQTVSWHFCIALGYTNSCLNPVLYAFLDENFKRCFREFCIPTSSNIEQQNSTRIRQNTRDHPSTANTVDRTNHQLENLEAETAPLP

[9] = biological target: Kappa-type opioid receptor (Homo sapiens) (UniProt P41145)
[10] = biological target: GABA-A receptor; anion channel (Rattus norvegicus) (UniProt O09028+P15431+P18506+P18508+P19969+P20236+P23574+P23576+P28471+P28473+P30191+P62813+P63079+P63138+Q91ZM7+Q9ES14)
[11] = biological target: Histamine H3 receptor (Homo sapiens) (UniProt Q9Y5N1)
Histamine H3 receptor (Homo sapiens), sequence (Q9Y5N1 whole entry): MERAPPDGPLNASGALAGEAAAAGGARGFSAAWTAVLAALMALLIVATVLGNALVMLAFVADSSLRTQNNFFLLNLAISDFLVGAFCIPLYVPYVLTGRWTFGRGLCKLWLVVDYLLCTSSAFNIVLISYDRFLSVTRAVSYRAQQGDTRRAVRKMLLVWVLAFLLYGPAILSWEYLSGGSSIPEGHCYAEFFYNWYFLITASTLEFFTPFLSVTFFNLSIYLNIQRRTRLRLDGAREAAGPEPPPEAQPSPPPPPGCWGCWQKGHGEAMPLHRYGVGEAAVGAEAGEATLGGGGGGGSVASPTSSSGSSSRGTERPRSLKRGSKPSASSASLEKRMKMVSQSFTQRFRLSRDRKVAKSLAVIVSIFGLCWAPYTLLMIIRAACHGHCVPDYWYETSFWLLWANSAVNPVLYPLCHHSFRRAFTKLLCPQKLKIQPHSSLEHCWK

[12] = biological target: T1, Alpha-1B adrenergic receptor (Homo sapiens) (UniProt P35368)
T1 sequence (whole entry): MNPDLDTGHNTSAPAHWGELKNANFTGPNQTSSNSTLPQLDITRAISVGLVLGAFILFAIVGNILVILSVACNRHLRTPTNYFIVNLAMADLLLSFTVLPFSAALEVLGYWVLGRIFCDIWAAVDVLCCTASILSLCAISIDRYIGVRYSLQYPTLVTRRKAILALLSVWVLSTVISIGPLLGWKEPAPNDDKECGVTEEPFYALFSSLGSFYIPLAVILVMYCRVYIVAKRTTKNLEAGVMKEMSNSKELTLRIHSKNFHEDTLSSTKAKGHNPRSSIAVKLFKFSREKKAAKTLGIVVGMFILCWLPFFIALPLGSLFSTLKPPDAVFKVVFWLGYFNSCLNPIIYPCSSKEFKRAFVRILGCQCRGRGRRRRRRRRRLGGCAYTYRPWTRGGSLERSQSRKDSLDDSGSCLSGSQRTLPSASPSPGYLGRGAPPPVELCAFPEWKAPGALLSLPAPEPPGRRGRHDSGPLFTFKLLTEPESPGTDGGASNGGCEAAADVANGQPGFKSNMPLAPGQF

[13] = biological target: T2, Alpha-2B adrenergic receptor (Homo sapiens) (UniProt P18089)
T2 sequence (whole entry): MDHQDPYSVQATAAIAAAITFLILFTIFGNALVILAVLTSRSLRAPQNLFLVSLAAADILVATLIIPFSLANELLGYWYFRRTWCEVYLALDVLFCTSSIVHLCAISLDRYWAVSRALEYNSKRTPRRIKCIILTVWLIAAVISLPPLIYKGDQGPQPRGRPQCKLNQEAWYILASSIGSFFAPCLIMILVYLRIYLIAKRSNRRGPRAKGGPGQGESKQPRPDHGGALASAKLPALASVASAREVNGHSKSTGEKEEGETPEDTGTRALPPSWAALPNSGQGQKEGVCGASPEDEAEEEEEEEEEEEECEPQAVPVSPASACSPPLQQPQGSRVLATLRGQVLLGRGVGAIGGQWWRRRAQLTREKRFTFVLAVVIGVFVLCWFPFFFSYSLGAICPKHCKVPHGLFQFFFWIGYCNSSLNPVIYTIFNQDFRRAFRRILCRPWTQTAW

[14] = biological target: Alpha-2C adrenergic receptor (Homo sapiens) (UniProt P18825)
Alpha-2C adrenergic receptor (Homo sapiens), sequence (P18825 whole entry): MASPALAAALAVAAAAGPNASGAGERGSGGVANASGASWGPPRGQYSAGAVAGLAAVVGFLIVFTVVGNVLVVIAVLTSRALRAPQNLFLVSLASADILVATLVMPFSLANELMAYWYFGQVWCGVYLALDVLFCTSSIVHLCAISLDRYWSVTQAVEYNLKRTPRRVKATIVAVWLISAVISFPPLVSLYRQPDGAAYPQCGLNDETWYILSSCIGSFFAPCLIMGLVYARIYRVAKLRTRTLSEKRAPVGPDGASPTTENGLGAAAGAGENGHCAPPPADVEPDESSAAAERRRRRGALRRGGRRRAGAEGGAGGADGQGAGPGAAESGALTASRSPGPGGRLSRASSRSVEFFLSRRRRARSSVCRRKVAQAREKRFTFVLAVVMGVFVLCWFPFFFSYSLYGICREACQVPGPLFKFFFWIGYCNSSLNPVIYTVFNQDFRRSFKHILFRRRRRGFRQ

[15] = biological target: Beta-2 adrenergic receptor (Homo sapiens) (UniProt P07550)
Beta-2 adrenergic receptor (Homo sapiens), sequence (P07550 whole entry, looked up): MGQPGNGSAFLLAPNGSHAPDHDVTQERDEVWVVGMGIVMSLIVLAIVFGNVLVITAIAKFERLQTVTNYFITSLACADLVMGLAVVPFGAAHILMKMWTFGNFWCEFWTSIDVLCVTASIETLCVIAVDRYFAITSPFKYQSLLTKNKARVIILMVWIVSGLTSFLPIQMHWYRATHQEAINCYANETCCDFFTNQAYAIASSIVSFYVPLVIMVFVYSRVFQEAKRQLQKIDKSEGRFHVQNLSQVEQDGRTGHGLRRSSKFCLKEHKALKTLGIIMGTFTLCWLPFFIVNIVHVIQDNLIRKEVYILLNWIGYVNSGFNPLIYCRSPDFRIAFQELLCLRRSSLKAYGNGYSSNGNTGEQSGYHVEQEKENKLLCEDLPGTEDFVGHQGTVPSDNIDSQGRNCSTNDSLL

[16] = biological target: T3, Muscarinic acetylcholine receptor M1 (Homo sapiens) (UniProt P11229)
T3 sequence (whole entry): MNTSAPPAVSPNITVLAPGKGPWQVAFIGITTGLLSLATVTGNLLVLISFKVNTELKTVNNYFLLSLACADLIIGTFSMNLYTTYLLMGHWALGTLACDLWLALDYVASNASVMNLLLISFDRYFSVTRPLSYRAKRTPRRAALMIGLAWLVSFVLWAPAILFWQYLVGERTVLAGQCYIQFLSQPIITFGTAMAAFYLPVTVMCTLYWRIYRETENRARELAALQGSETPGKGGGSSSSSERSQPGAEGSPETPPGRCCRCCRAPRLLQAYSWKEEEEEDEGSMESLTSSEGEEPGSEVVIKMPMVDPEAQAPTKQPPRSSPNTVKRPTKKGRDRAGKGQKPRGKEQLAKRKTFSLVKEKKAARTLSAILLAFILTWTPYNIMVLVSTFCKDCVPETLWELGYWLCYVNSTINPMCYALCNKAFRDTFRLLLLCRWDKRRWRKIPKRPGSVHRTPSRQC

[17] = biological target: T4, Muscarinic acetylcholine receptor M4 (Homo sapiens) (UniProt P08173)
T4 sequence (whole entry): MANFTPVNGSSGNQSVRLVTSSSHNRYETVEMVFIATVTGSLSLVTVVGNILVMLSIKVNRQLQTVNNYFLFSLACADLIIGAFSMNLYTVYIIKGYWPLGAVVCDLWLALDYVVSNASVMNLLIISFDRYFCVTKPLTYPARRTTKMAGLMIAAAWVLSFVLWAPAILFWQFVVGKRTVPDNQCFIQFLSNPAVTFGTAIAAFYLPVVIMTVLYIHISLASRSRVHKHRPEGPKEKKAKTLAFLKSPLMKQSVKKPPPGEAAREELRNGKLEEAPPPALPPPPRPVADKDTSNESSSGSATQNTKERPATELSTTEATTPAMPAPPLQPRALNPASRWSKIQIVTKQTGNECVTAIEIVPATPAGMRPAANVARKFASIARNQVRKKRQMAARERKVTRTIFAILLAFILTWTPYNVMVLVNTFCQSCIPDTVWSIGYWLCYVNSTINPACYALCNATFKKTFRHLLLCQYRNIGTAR

[18] = biological target: Sigma intracellular receptor 2 (Homo sapiens) (UniProt Q5BJF2)
Sigma intracellular receptor 2 (Homo sapiens), sequence (Q5BJF2 whole entry): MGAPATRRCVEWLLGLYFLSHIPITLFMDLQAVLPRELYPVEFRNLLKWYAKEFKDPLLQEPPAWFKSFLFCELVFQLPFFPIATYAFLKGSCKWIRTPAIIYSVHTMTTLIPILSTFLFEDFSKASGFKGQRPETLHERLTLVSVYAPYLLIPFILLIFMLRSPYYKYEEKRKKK

[19] = biological target: Sigma non-opioid intracellular receptor 1 (Homo sapiens) (UniProt Q99720)
Sigma non-opioid intracellular receptor 1 (Homo sapiens), sequence (Q99720 whole entry): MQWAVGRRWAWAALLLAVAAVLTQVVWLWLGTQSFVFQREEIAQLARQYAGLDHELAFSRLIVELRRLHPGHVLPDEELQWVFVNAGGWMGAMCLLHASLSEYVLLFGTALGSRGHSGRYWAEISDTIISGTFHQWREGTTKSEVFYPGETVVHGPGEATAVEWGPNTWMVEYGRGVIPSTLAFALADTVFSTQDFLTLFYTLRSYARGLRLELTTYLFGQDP

5-hydroxytryptamine receptor 7, sequence (P34969 whole entry): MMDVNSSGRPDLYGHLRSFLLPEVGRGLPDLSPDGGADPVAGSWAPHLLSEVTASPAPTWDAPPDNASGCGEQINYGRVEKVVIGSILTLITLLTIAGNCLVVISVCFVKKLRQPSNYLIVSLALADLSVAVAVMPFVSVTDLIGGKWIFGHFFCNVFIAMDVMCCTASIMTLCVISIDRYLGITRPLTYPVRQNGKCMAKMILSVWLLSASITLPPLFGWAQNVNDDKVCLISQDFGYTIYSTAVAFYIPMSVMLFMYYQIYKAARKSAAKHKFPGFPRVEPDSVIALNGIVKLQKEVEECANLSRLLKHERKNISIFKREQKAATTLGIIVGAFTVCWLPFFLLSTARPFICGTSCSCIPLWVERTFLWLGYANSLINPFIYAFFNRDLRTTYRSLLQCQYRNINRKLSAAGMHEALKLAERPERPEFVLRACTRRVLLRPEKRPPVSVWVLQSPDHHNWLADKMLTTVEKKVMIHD
5-hydroxytryptamine receptor 5A (Homo sapiens), sequence (P47898 whole entry): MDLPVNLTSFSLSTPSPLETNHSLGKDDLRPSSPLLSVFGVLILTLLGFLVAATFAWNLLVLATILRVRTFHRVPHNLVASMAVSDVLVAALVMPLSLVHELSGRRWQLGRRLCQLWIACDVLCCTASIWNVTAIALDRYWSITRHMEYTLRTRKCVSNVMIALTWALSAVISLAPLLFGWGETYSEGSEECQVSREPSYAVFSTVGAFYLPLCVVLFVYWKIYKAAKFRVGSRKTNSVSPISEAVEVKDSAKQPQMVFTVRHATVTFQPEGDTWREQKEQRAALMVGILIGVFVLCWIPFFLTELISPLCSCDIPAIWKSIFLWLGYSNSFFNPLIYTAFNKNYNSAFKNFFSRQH

With `c1ccc(C2CCN(c3cnc4c(N5CCOCC5)nccn34)CC2)cc1` the inhibition [1] was 1.09%, the inhibition [2] was 13.1% and the inhibition [3] was 19%. For the same compound, the inhibition [4] was 20.2%, the inhibition [5] was 10.6% and the inhibition [6] was 3.12%. The inhibition [7] was 85.9%, the inhibition [8] was 19.6% and the inhibition [9] was 6.44%. For the same compound, the inhibition [10] was 59.8%, the inhibition [11] was 7.29% and the inhibition [12] was 0.45%. The inhibition [13] was 31.4%, the inhibition [14] was 16.5% and the inhibition [15] was 8.86%. For the same compound, the inhibition [16] was 23.7%, the inhibition [17] was -5.45% and the inhibition [18] was 31.6%. For the same compound, the inhibition [19] was 44%.

In the case of `COCCc1ccc(-c2c(C)nc3c(N4CCOCC4)ccnn23)cn1` [JNJ-42396302], the inhibition [1] is reported as 11.5%, the inhibition [2] is reported as 45.9% and the inhibition [3] is reported as 3.93%. For the same compound, the inhibition [4] was 96.1%, the inhibition [5] was 2.41% and the inhibition [6] was 0.57%. It also gave an inhibition [7] of 9.55%, an inhibition [8] of -1.51% and an inhibition [9] of 14.5%. The inhibition [10] was 0.32%, the inhibition [11] was 3.7% and the inhibition [12] was -8.94%. The inhibition [13] was 78.2%, the inhibition [14] was 41.3% and the inhibition [15] was -1.12%. It also gave an inhibition [16] of 2.83%, an inhibition [17] of 5.21% and an inhibition [18] of 3.07%. For the same compound, the inhibition [19] was -2.53%.
